Reference: US8809001B2, “High throughput assays for inhibitors and activators of PAQR receptors” (University of Florida Research Foundation, Inc., priority 2007, dated 2014)

What was measured:
FET3 = experiment: FET3-lacZ reporter in wild type yeast carrying empty expression plasmid; type: cell-based, Saccharomyces cerevisiae; conditions: no human PAQR
Source text: Assays and growth conditions. Strains were maintained using standard protocol and grown in synthetic defined (SD) media with the appropriate amino acids to match the auxotrophies of the individual strains. Low Iron Medium (LIM) contains EDTA to limit iron-bioavailability and its composition has been previously described (Kupchak et al., 2007). […] In brief, overnights of cells grown in SD-glucose media were re-inoculated into iron-deficient LIM to induce the expression of FET3. 2% galactose was used as a carbon source to induce full expression of PAQR genes driven by the GAL1 promoter, while 0.05% galactose/1.95% raffinose was used for reduced PAQR expression. All ligands were added to the growth medium upon re-inoculation into LIM. For experiments in which steroids were added as ligands, steroids were added from ethanol stocks and “untreated” controls are actually treated with an equal volume of ethanol to control for vehicle effects. Cells were allowed to grow to mid-log phase at which time the activity of the FET3 gene was monitored using a FET3-lacZ promoter-reporter construct. lacZ activities are presented as a percentage of activity seen in untreated cells expressing the appropriate empty expression vector control. For individual experiments, each data point has been done in triplicate and the error bars represent +/−1 standard deviation. All experiments were performed at least three times and a representative experiment is shown. EC50 values were obtained using the web-based BioDataFit software using sigmoidal curve-fitting. (web site changbioscience.com/stat/ec50.html)

AdipoR2 = experiment: FET3-lacZ (pFET3-397) reporter repression in yeast expressing AdipoR2; type: cell-based, human; conditions: concentrations as high as 10 μM
Source text: IZH1-4 were cloned into pRS316-GAL1 via gap repair as previously described (Lyons et al., 2004). The triple hemaglutinin epitope (3×HA) tagged construct of the IZH2 gene was generated by replacing the ZRC1 promoter and open reading frame in the YCpZRC1-HA plasmid (MacDiarmid et al., 2002) with those of IZH2. This was accomplished by gap repair of Age I-digested YCpZRC1-HA to generate pIZH2-3×HA. This construct has the IZH2 gene driven by its native promoter and retains the ZRC1 terminator sequence. The native IZH2 promoter was then exchanged with the GAL1 promoter using gap repair of pIZH2-3×HA plasmids cut with EcoN I. AdipoR1 and AdipoR2 were amplified from cDNAs obtained from OpenBiosystems (Accession #: BC010743 and BC051858, respectively). PCR products were cloned into NcoI/BamHI digested pYES260 vector (Melcher, 2000) by gap repair allowing for GAL1-driven expression. Plasmids containing GAL1-driven the TAP (Tandem Affinity Purification) tagged NRG1 and NRG2 constructs were purchased from OpenBiosystems.
Most experiments were performed in a defined EDTA-containing medium known as low iron medium (LIM) (Eide et al., 1992). Iron-deficiency and repletion were generated by adding either 1 μM or 1 mM of FeCl3, respectively, to LIM. 2% galactose was used to fully induce GAL1-driven gene overexpression. Total sugar concentration was maintained at 2% by the addition of raffinose in those experiments in which the % galactose was modulated to decrease expression levels. Cells were allowed to grow to mid-log phase in LIM and β-galactosidase assays on permeabilized yeast were performed as previously described (Lyons et al., 2000). […]
Assays and growth conditions. […] Cells were allowed to grow to mid-log phase at which time the activity of the FET3 gene was monitored using a FET3-lacZ promoter-reporter construct. lacZ activities are presented as a percentage of activity seen in untreated cells expressing the appropriate empty expression vector control. […]

SMILES: CC(=O)[C@H]1CC[C@H]2[C@@H]3CCC4=CC(=O)CC[C@]4(C)[C@H]3CC[C@]12C [Progesterone, progesterone]
- effect of ligand on FET3 in cells carrying empty expression plasmid (FET3): did not respond
- response of AdipoR2 to progesterone (AdipoR2): do not respond
